In patent US5167949A, “4(3H)-pteridinones, preparation processes and drugs containing them” (Lipha, Lyonnaise Industrielle Pharmaceutique, priority 1989, dated 1992) one finds ED50 and LD50 data, which are given here for eight molecules.

The subject of data set [1] is passive cutaneous anaphylaxis. The data set is described as follows: passive cutaneous anaphylaxis (PCA) test. Format: in vivo. The note with it: Rattus norvegicus, rats, dose decreasing by 50% the skin area occupied by the dye. How it is done: The anti-allergic activity was measured in rats by the passive cutaneous anaphylaxis or PCA test described by I. Mota, Life Sciences 1963, 7, 465 and Z. Ovary et al., Proceedings of Society of Experimental Biology and Medicine 1952, 81, 584.
In this test, the skin of rats is sensitized by 4 intradermal injections of a homologous anti-ovalbumin serum diluted 15-fold. On the day following sensitization, the animals receive 1 ml/kg of a 2.5% saline solution of Evans blue and 1 ml/kg of a 2.5% saline solution of ovalbumin simultaneously by intravenous injection. The test compounds are administered before the antigen, the time interval being 5 min by intraperitoneal injection and 10 min by the oral route. Thirty minutes after injection of the ovalbumin/dye mixture, the animals are sacrificed and the intensity of the allergic response is determined by measuring the area of skin coloration. The protection provided by the products of the invention is expressed as an ED50 (dose decreasing by 50% the skin area occupied by the dye). Four rats are used for each dose of product.

A further data set deals with PAF-acether. The data set is described as follows: bronchospasm induced in anaesthetized guinea pigs by PAF-acether. Format: in vivo. The conditions noted are these: Cavia porcellus, intravenous, PAF-acether 10 ng/kg/IV. The source says: The compounds described are distinguished, in addition, from known products by their long duration of action and by a capacity for antagonizing the effects of PAF-acether, especially its bronchoconstrictor effects.

A further data set in a line: in vivo. The note with it: read-out: median lethal dose. How it is done:
By way of illustration, for the compound described in Example 1, the median lethal doses determined orally on rats and on mice are above 2,000 mg/kg, and the median lethal doses determined intraperitoneally and intravenously on mice are above 1,600 mg/kg.

Setting [2] is: ip, intraperitoneal, 5 min before antigen.

Like-named read-outs stand apart in the source and are kept apart here. Where only a bound is given, the exact number is not on record here.

Take `COCOCc1nc2nccnc2c(=O)[nH]1` [Example 12, 2-Methoxymethoxymethyl-4(3H)-pteridinone]: in data set [1] (setting [2]), the ED50 – broadly, the dose at which the effect has come halfway, by size or by number of responders – came out at 18 mg/kg.

Consider `O=c1[nH]c(COc2ccccc2)nc2nccnc12` [Example 9, 2-Phenoxymethyl-4(3H)-pteridinone], for which the 50% effective dose (ED50) in data set [1] (setting [2]) worked out at 39 mg/kg.

Consider `COCc1nc2nccnc2c(=O)[nH]1` [Example 3, 2-Methoxymethyl-4(3H)-pteridinone], for which the ED50 in data set [1] (setting [2]) was 14 mg/kg; in data set [1] (oral, 10 min before antigen), 33 mg/kg.

On to `CCCOCc1nc2nccnc2c(=O)[nH]1` [Example 4, 2-Propoxymethyl-4(3H)-pteridinone], for which the ED50 in data set [1] (setting [2]) stood at 9 mg/kg; in data set [1] (oral, 10 min before antigen), 25 mg/kg.

For the molecule `CCOCc1nc2nc(O)cnc2c(=O)[nH]1` [Example 7, 2-Ethoxymethyl-7-hydroxy-4(3H)-pteridinone], in data set [1] (setting [2]), the ED50 stood at 21 mg/kg.

Molecule `CC(C)OCc1nc2nccnc2c(=O)[nH]1` [Example 13, 2-Isopropoxymethyl-4(3H)-pteridinone] displayed an ED50 in data set [1] (setting [2]) of 14 mg/kg.

On to `O=c1[nH]c(COCc2ccccc2)nc2nccnc12` [Example 11, 2-Benzyloxymethyl-4(3H)-pteridinone], for which the ED50 stood at 10 mg/kg in data set [1] (setting [2]) and 48 mg/kg in data set [1] (oral, 10 min before antigen).

For the molecule `CCOCc1nc2nccnc2c(=O)[nH]1` [Example 1, 2-Ethoxymethyl-4(3H)-pteridinone], the ED50 with PAF-acether came to 0.068 mg/kg; in data set [1] (setting [2]), 7 mg/kg; in data set [1] (oral, 10 min before antigen) it was 24 mg/kg. Moreover, the LD50 in the data set “in vivo” (mouse, ip, mice, intraperitoneal) was above 1600 mg/kg; in the data set “in vivo” (mouse, mice, intravenous), above 1600 mg/kg; in “in vivo” (mouse, mice, oral), above 2000 mg/kg; in the data set “in vivo” (rat, rats, oral), above 2000 mg/kg.
